The record followed here is patent US10584351B2, “Vectors conditionally expressing therapeutic proteins, host cells comprising the vectors, and uses thereof” (Intrexon Corporation, priority 2010, dated 2020).

Experiment [1] has as its system B16F0 murine melanoma cancer cells. Put plainly: Ad-RTS-IL-12 dose response study in the mouse B16F0 melanoma model. The class given is in vivo. Particulars: ligand by itself (chow). From the text:
The anti-tumor effect of Ad-RTS-IL-12 has been evaluated in a series of murine tumor models of melanoma, colorectal, pancreatic, breast, lung and renal cancers. An exemplary dose response experiment is shown below. Immuno-competent female C57bl/6 mice (6-8 week old) were inoculated subcutaneously with B16F0 murine melanoma cancer cells. Eleven days after tumor cell inoculation, when macroscopic tumor nodules were evident (tumor volumes averaged approx. 40 mm^3), the mice were separated into groups of 5 animals each. There were 9 groups including: control saline treated; activator ligand treated; Ad-RTS-mIL12 ([…]) alone and 6 groups were treated with different doses of vector Ad-RTS-mIL-12 (1e7, 1e8, 1e9, 5e9, 1e10, 5e10 viral particles) plus activator ligand. Mice in the +ligand groups were provided 100 mg/kg activator ligand in 2018 Teklad Global 18% Protein Rodent Diet (Harlan Laboratories) chow (1000 mg ligand/kg chow) one day before the vector administration. The mice in control groups received 2018 Teklad Global 18% Protein Rodent Diet chow. A single administration of Ad-RTS-mIL12 in 100 ul PBS was injected into tumor on day 12. Tumor volume and body weights were measured every 2-3 days using calipers and a weight scale, and the animals were followed until control tumors reached 2000 mm^3. Data were uploaded into Study Log animal study software.

Experiment [2] relates to murine melanoma cancer cells (B16F0). Put plainly: Ad-RTS-mIL12 with different activator doses in the melanoma (B16F0) model. Particulars: activator chow alone. The class given is in vivo, mouse. Here is the method:
Female, 6- to 8-week-old C57b/6 immunocompetent mice were inoculated subcutaneously (s.c.) with murine melanoma cancer cells (B16F0). Ten days post cell inoculation, the mice were randomly assigned to treatment and control groups (n=5) for a total of nine groups: no treatment (control), activator (L) (RG-115932) alone, and AdRTS-mlL12 alone, and Ad-RTS-mIL12 with different activator dose (50, 100, 250, 500 and 1000 mg/kg) of ligand. The cohorts receiving activator (L) were fed rodent 2018 Teklad Global 18% Protein Rodent Diet chow blended with activator (1000 mg/kg chow) ad libitum. Cohorts receiving treatment with Ad-RTS-mIL12 alone or no treatment continued to receive a regular 2018 Teklad Global 18% Protein Rodent Diet chow diet. Treatment was initiated when the tumor reached […]. A single dose of Ad-RTSmIL12 (1e10 vp/100 ul in PBS) was given to mice through intratumoral (i.t.) injection on Day 13 post tumor cell inoculation. The activator (L) chow was given to mice 24 hr prior to vector injection. Tumor size and body weight of each mouse were monitored three times a week using calipers and a weight scale until the end of experiment. The experiment was terminated when the tumor size exceeded >2000 mm^3. Data were uploaded into Study Log animal study software.

Experiment [3] relates to breast cancer (4T1) cells. Put plainly: Ad-RTS-mIL12 in the breast cancer (4T1) model. The class given is in vivo, mouse. The following applies: activator ligand alone, Day 26. Here is the method: Six- to eight-week-old female BalbC mice were purchased from Charles River Laboratories or Harlan (USA). Animal care and experimental procedure were performed according to the Intrexon's Institutional Animal Care and Use Committee guideline.
Murine breast carcinoma (4T1) cell lines were purchased from ATCC (Manassas, Va.). The 4T1 cells were grown in Roswell Park Memorial Institute medium (RPMI) 1640 (ATCC, Manassas, Va. The medium was supplemented with heat-inactivated fetal calf serum (FCS) 10% v/v, 2-mM L-glutamine (Atlanta Biologicals, Inc, Lawrenceville, Ga.), 100 IU/ml penicillin G, and 100 μg/ml streptomycin. The cells were grown at 37° C. in 5% C02. All cell lines were routinely tested and found to be free of mycoplasma.
Female, 6- to 8-week-old BALB/c immune-competent mice were inoculated subcutaneously (s.c.) with syngenic breast cancer (4T1) cells, 1e5 cells/50 ul. Eight days post cell inoculation, the mice were randomized into groups of five animals each in four groups—no treatment, activator alone, Ad-RTS-mIL12 alone and Ad-RTS-mIL12 plus activator. The cohorts receiving activator ligand were fed rodent chow blended with activator (1000 mg/kg) ad libitum. […] Tumor size and body weight of each mouse were monitored three times a week until the end of experiment. […]

Experiment [4] deals with murine colon cancer cells (CT26Luc). Put plainly: Ad-RTS-mIL12 in the colon cancer (CT26Luc) model. Particulars: activator chow alone. The format is in vivo, mouse. An excerpt:
Female, 6- to 8-week-old Balb/C immunocompetent mice were inoculated subcutaneously (s.c.) with luciferase expressing stable murine colon cancer cells (CT26Luc). Ten days post cell inoculation, the mice were randomly assigned to treatment and control groups (n=5) for a total of three groups—no treatment (control), activator (L) (RG-115932) alone, and Ad-RTS-mIL12 plus activator. The cohorts receiving activator (L) were fed 2018 Teklad Global 18% Protein Rodent Diet chow (Harlan Laboratories) blended with activator (1000 mg/kg chow) ad libitum. Cohorts receiving no treatment continued to receive 2018 Teklad Global 18% Protein Rodent Diet chow. Treatment was initiated when the tumor reached 40+17 mm^3. The Ad-RTS-mIL12 (1e10 vp/100 ul in PBS) was given to mice through intratumoral (i.t.) injection on Day 11 and 18 post tumor cell inoculation. The activator (L) chow was given to mice 24 hr prior to vector injection. Tumor size and body weight of each mouse were monitored three times a week using calipers and a weight scale until the end of experiment. The experiment was terminated when the mouse tumor size exceeds >2000 mm^3. Data were uploaded into Study Log animal study software.

The test system of experiment [5] is PAN02 pancreatic cancer cells. Put plainly: Ad-RTS-mIL12 in the pancreatic cancer (PAN02) model. The class given is in vivo, mouse. The following applies: activator alone. Here is the method:
Female, 6- to 8-week-old C57b/6 immuno competent mice were inoculated subcutaneously (s.c.) with syngenic PAN02 pancreatic cancer cells (ATCC). Six days post cell inoculation, the mice were randomized into groups of five animals each in four groups—no treatment, activator (RG-115932) alone, Ad-RTS-mIL12 alone and Ad-RTS-mIL12 plus activator. The cohorts receiving activator ligand were fed 2018 Teklad Global 18% Protein Rodent Diet chow (Harlan Laboratories) blended with activator (1000 mg/kg chow) ad libitum. Cohorts receiving treatment with Ad-RTS-mIL12 alone or no treatment continued to receive 2018 Teklad Global 18% Protein Rodent Diet chow. Mice received treatment with a single intratumoral (i.t.) injection of Ad-RTS-mIL12 at dose level of 1e10 vp/100 ul in PBS, on Day 7 and Day 14 post tumor cell implantation. The tumor size averaged […] at the time of vector treatment initiation.
Tumor size and body weight of each mouse were monitored three times a week until the end of experiment. The experiment was terminated when the mice tumor size exceeded 600 mm^3. Since pancreatic tumors grow very slowly, we defined […]. The tumor growth in mice receiving no treatment was normal.

The test system of experiment [6] is murine Lewis lung carcinoma cells (LLC). Put plainly: Ad-RTS-mIL12 in the Lewis lung carcinoma (LLC) model. The class given is in vivo, mouse. Particulars: activator (L) chow alone. An excerpt: Female, 6- to 8-week-old C57b/6 immunocompetent mice were inoculated subcutaneously (s.c.) with murine Lewis lung carcinoma cells (LLC). Five days post cell inoculation, the mice were randomized and assigned to treatment and control groups (n=5) for a total of four groups—no treatment (control), activator (RG-115932) alone, AdRTS-mIL12 alone and Ad-RTS-mIL12 plus activator. The cohorts receiving activator (L) were fed (2018 Teklad Global 18% Protein Rodent Diet (Harlan Laboratories) chow blended with activator (1000 mg/kg chow) ad libitum. Cohorts receiving treatment with Ad-RTS-mIL12 alone or no treatment continued to receive a regular diet. Treatment was initiated when the tumor reached 28±6 mm^3. The Ad-RTS-mIL12 (1e10 vp/100 ul in PBS) was given to mice through intratumoral (i.t.) injection on Day 6, 9 and 13 post tumor cell inoculation. Activator chow (L) was started to given to mice 24 hr prior to vector administration. Tumor size and body weight of each mouse were monitored three times a week using calipers and a weight scale until the end of experiment. The experiment was terminated when the mice tumor size exceeded >1200 mm^3. Data were uploaded into Study Log animal study software.

For the compound `CCC[C@@H](N(NC(=O)c1cccc(OC)c1CC)C(=O)c1cc(C)cc(C)c1)C(C)(C)C` [RG-115932, (R)-3,5-Dimethyl-benzoic acid N-(1-tert-butyl-butyl)-N′-(2-ethyl-3-methoxy-benzoyl)-hydrazide], the anti-tumor effect entry in experiment [1] is on record as “no effect”. The anti-tumor activity entry in experiment [2] was “did not have anti-tumor activity”. The entries for the “tumor growth inhibition relative to control” value in experiment [3] and in experiment [3] (listed as activator ligand (L)) were 22% and 35%, respectively. In experiment [4], the tumor growth result is “did not inhibit tumor growth”. Further, the tumor growth delay entry in experiment [5] is given as “minor tumor growth delay”. Moreover, the “tumor growth kinetics versus control” value in experiment [6] is “approximately similar tumor growth kinetics”.
